From ChEMBL document CHEMBL1275577, “Study of the in vitro activities of rifaximin and comparator agents against 536 anaerobic intestinal bacteria from the perspective of potential utility in pathology involving bowel flora” (Antimicrob Agents Chemother, 2009)

Columns and labels:
[1] = system: Parabacteroides distasonis; experiment: Antimicrobial activity against Parabacteroides distasonis by Wadsworth agar dilution method in presence of beta-lactamase inhibitor Sulbactam; assay type: functional
[2] = system: Bacteroides thetaiotaomicron; experiment: Antimicrobial activity against Bacteroides thetaiotaomicron by Wadsworth agar dilution method in presence of beta-lactamase inhibitor Sulbactam; assay type: functional
Bacteroides nordii = experiment: Antimicrobial activity against Bacteroides nordii by Wadsworth agar dilution method in presence of beta-lactamase inhibitor Sulbactam; assay type: functional
[3] = system: Fusobacterium necrophorum; experiment: Antimicrobial activity against Fusobacterium necrophorum by Wadsworth agar dilution method in presence of beta-lactamase inhibitor Sulbactam; assay type: functional
Fusobacterium sp. = experiment: Antimicrobial activity against Fusobacterium sp. by Wadsworth agar dilution method in presence of beta-lactamase inhibitor Sulbactam; assay type: functional
Porphyromonas = experiment: Antimicrobial activity against Porphyromonas sp. by Wadsworth agar dilution method in presence of beta-lactamase inhibitor Sulbactam; assay type: functional
Hoylesella loescheii = experiment: Antimicrobial activity against Prevotella loescheii by Wadsworth agar dilution method in presence of beta-lactamase inhibitor Sulbactam; assay type: functional
Clostridioides difficile = experiment: Antimicrobial activity against Clostridium difficile by Wadsworth agar dilution method in presence of beta-lactamase inhibitor Sulbactam; assay type: functional
Clostridium cocleatum = experiment: Antimicrobial activity against Clostridium cocleatum by Wadsworth agar dilution method in presence of beta-lactamase inhibitor Sulbactam; assay type: functional; settings: Thomasclavelia cocleata
Thomasclavelia ramosa = experiment: Antimicrobial activity against Clostridium ramosum by Wadsworth agar dilution method in presence of beta-lactamase inhibitor Sulbactam; assay type: functional
Clostridium septicum = experiment: Antimicrobial activity against Clostridium septicum by Wadsworth agar dilution method in presence of beta-lactamase inhibitor Sulbactam; assay type: functional
[4] = system: Paeniclostridium sordellii; experiment: Antimicrobial activity against Clostridium sordellii by Wadsworth agar dilution method in presence of beta-lactamase inhibitor Sulbactam; assay type: functional; settings: Paraclostridium sordellii
Clostridium subterminale = experiment: Antimicrobial activity against Clostridium subterminale by Wadsworth agar dilution method in presence of beta-lactamase inhibitor Sulbactam; assay type: functional
Clostridium symbiosum = experiment: Antimicrobial activity against Clostridium symbiosum by Wadsworth agar dilution method in presence of beta-lactamase inhibitor Sulbactam; assay type: functional
Actinomyces viscosus = experiment: Antimicrobial activity against Actinomyces viscosus by Wadsworth agar dilution method in presence of beta-lactamase inhibitor Sulbactam; assay type: functional
[5] = system: Bifidobacterium adolescentis; experiment: Antimicrobial activity against Bifidobacterium adolescentis by Wadsworth agar dilution method in presence of beta-lactamase inhibitor Sulbactam; assay type: functional
[6] = Antimicrobial activity against Bifidobacterium infantis by Wadsworth agar dilution method in presence of beta-lactamase inhibitor Sulbactam; assay type: functional, Bifidobacterium longum subsp. infantis; settings: Bifidobacterium longum
Eubacterium rectale = experiment: Antimicrobial activity against Eubacterium rectale by Wadsworth agar dilution method in presence of beta-lactamase inhibitor Sulbactam; assay type: functional; settings: Agathobacter rectalis
Lactobacillus jensenii = experiment: Antimicrobial activity against Lactobacillus jensenii by Wadsworth agar dilution method in presence of beta-lactamase inhibitor Sulbactam; assay type: functional
[7] = system: Propionibacterium propionicum; experiment: Antimicrobial activity against Propionibacterium propionicum by Wadsworth agar dilution method in presence of beta-lactamase inhibitor Sulbactam; assay type: functional; settings: Arachnia propionica
Finegoldia magna = experiment: Antimicrobial activity against Finegoldia magna by Wadsworth agar dilution method in presence of beta-lactamase inhibitor Sulbactam; assay type: functional

CC1(C)S[C@@H]2[C@H](NC(=O)[C@H](N)c3ccccc3)C(=O)N2[C@H]1C(=O)O [AMPICILLIN]
MIC50 [1]: 16 µg/mL | MIC90 [1]: 32 µg/mL | MIC50 [2]: 4 µg/mL | MIC90 [2]: 16 µg/mL | MIC50 (Bacteroides nordii): 2 µg/mL | MIC90 (Bacteroides nordii): 16 µg/mL | MIC50 [3]: 1 µg/mL | MIC90 [3]: 4 µg/mL | MIC50 (Fusobacterium sp.): 1 µg/mL | MIC90 (Fusobacterium sp.): 4 µg/mL | MIC (Porphyromonas): 0.25 µg/mL | MIC50 (Porphyromonas): 0.25 µg/mL | MIC90 (Porphyromonas): 0.5 µg/mL | MIC50 (Hoylesella loescheii): 0.5 µg/mL | MIC90 (Hoylesella loescheii): 4 µg/mL | MIC50 (Clostridioides difficile): 2 µg/mL | MIC90 (Clostridioides difficile): 4 µg/mL | MIC (Clostridium cocleatum): 0.25 µg/mL | MIC50 (Clostridium cocleatum): 0.25 µg/mL | MIC90 (Clostridium cocleatum): 1 µg/mL | MIC (Thomasclavelia ramosa): 0.25 µg/mL | MIC50 (Thomasclavelia ramosa): 0.25 µg/mL | MIC90 (Thomasclavelia ramosa): 1 µg/mL | MIC (Clostridium septicum): 0.25 µg/mL | MIC50 (Clostridium septicum): 0.25 µg/mL | MIC90 (Clostridium septicum): 1 µg/mL | MIC [4]: 0.25 µg/mL | MIC50 [4]: 0.25 µg/mL | MIC90 [4]: 1 µg/mL | MIC (Clostridium subterminale): 0.25 µg/mL | MIC50 (Clostridium subterminale): 0.25 µg/mL | MIC90 (Clostridium subterminale): 1 µg/mL | MIC (Clostridium symbiosum): 0.25 µg/mL | MIC50 (Clostridium symbiosum): 0.25 µg/mL | MIC90 (Clostridium symbiosum): 1 µg/mL | MIC (Actinomyces viscosus): 0.25 µg/mL | MIC50 (Actinomyces viscosus): 0.25 µg/mL | MIC90 (Actinomyces viscosus): 2 µg/mL | MIC [5]: 0.25 µg/mL | MIC50 [5]: 0.25 µg/mL | MIC90 [5]: 2 µg/mL | MIC [6]: 0.25 µg/mL | MIC50 [6]: 0.25 µg/mL | MIC90 [6]: 2 µg/mL | MIC (Eubacterium rectale): 0.25 µg/mL | MIC50 (Eubacterium rectale): 0.25 µg/mL | MIC90 (Eubacterium rectale): 2 µg/mL | MIC (Lactobacillus jensenii): 0.25 µg/mL | MIC50 (Lactobacillus jensenii): 0.25 µg/mL | MIC90 (Lactobacillus jensenii): 2 µg/mL | MIC [7]: 0.25 µg/mL | MIC50 [7]: 0.25 µg/mL | MIC90 [7]: 2 µg/mL | MIC (Finegoldia magna): 0.25 µg/mL | MIC50 (Finegoldia magna): 0.25 µg/mL | MIC90 (Finegoldia magna): 2 µg/mL
